Drawing on patent publication US20030013656A1, “Pyruvate derivatives” (priority 2001, published 2003), this text covers inhibition in vivo for 14 compounds.

Molecules are shown by their SMILES.

The assay relates to rat middle cerebral artery occlusion (MCAO) model. The assay is described as follows: Rat middle cerebral artery occlusion (MCAO) model of cerebral ischemia. To be noted: 2 h, doses in the range of less than about 1 μg/kg to less than about 10 mg/kg, two hours MCAO, read-out: reduction in total infarct volume. In kind it is in vivo. The procedure: Male Wistar rats (Harlan, Ind.) weighing 300-350 g are commonly used in these experiments. Animals are allowed free access to water and commercial rodent diet under standard laboratory conditions. Room temperature is maintained at 20-23° C. and room illumination is on a 12/12-hour light/dark cycle. Animals are acclimatized to the laboratory environment 5 to 7 days prior to the study, and fasted (with free access to water) overnight before surgery.
Anesthesia is maintained by inhalation of 3.0% isoflurane (Aerrane, Front Dodge, Iowa) in […]. The animal's neck is shaved and sterilized before operation. Body temperatures are controlled and maintained at 37.5° C.+/−1 degree via external heating and cooling devices. To lower the body temperature, animals are placed in a cooling chamber that uses ice to cool circulating air. Throughout the study the body temperature is recorded using a temperature transponder (BMDS Inc., Seaford, Del.) implanted subcutaneously at the time of MCAO between the rat shoulder blades, which allows the user to read the body temperature via a pocket scanner (BMDS Inc., Seaford, Del.). The body temperature can also be taken by inserting the temperature probe into the animal's rectum. Body temperature is recorded every hour for 6 hours post-occlusion, but temperature is measured more frequently to facilitate maintaining the animals' normothermic temperature.
Animals are subjected to two hours MCAO using a modified intraluminal filament technique, as follows. A midline incision on the ventral part of the neck is made to expose external and internal carotid arteries. The right external and common carotid arteries are ligated by a suture (silk 5/0, Carlisle Laboratories, Farmers Branch, Tex.) and the right internal artery is temporarily ligated using a microvascular clip (Fine Science Tool Inc., Foster City, Calif.). A small incision is made in the common carotid artery. A nylon filament, its tip rounded by heating, is prepared from a fishing line (Stren Fishing Lines, Wilmington, Del.) and is inserted from the right common carotid artery. The filament is advanced into the internal carotid artery 18-20 mm from the point of bifurcation of internal and external arteries and a suture is tightly ligated around the filament. Two hours post occlusion, animals are re-anesthetized to allow reperfusion for the remaining of the experiment by removal of the filament. C. Drug Administration
Test compounds can be administered by any of a number of routes, such as those described below. Compounds can be administered before, during or after occlusion, as appropriate to the protocol.
One hour after MCAO, the animal is gently held by its tail and observed for forelimb flexion. Then the animal is placed on the floor to be observed for walking pattern; only the animals that score 3 on the Bederson grading system (Table 1) are included in the study.
Twenty-four hours post-MCAO, or longer in some experiments, animals are sacrificed by CO2 asphyxiation (dry ice). The brain is quickly removed from the skull, using standard procedures, rinsed in chilled saline solution, and placed on a rat brain tissue slicer (ASI instrument, MI). Seven 2-mm thick coronal slices are cut from each brain using razor blades. The slices are immersed in 0.9% saline containing 1.0% 2,3,5-triphenyltetrazolume chloride (TTC) (Sigma Chemical Co., St. Louis, Mo.) and incubated in a 37° C. water bath for 30 minutes.
After staining, each 2-mm slice is photographed with a TMC-7 camera (JH Technologies, Ca) which is directly connected to a desktop PC to capture and save the image of each brain slice. This image is used for the measurements of the regions of interest using a computer-based image processing system (Metamorph).
To measure each area, the region of interest is selected using a freehand selection tool, the area is automatically computed by selecting the measure command. […]
Consider `NC(CCC(=O)NC(CSCC(=O)C(=O)N1CCCCC1)C(=O)NCC(=O)O)C(=O)O` (centres unmarked) [2-Amino-4-[1-(carboxymethyl-carbamoyl)-2-(2,3-dioxo-3-piperidin-1-yl-propylsulfanyl)-ethylcarbamoyl]-butyric acid], for which the inhibition in vivo at up to 10 mg/kg was 20 to 80%.
As for `CCOC(=O)/C(CSCC(NC(=O)CCC(N)C(=O)O)C(=O)NCC(=O)O)=N\OC` (centres unmarked) [2-Amino-4-[1-(carboxymethyl-carbamoyl)-2-(2-ethoxycarbonyl-2-methoxyimino-ethylsulfanyl)-ethylcarbamoyl]-butyric acid], the inhibition in vivo at up to 10 mg/kg fell in the range of 20 to 80%.
The result for `NC(CCC(=O)NC(CSCC(=NO)C(=O)N1CCCCC1)C(=O)NCC(=O)O)C(=O)O` (centres unmarked) [2-Amino-4-[1-(carboxymethyl-carbamoyl)-2-(2-hydroxyimino-3-oxo-3-piperidin-1-yl-propylsulfanyl)-ethylcarbamoyl]-butyric acid] reads 20 to 80%; that for `CCCCOC(=O)C(CSCC(NC(=O)CCC(N)C(=O)O)C(=O)NCC(=O)O)=NOCc1ccccc1` (centres unmarked) [2-Amino-4-[2-(2-benzyloxyimino-2-butoxycarbonyl-ethylsulfanyl)-1-(carboxymethyl-carbamoyl)-ethylcarbamoyl]-butyric acid], 20 to 80%.
Regarding `CCCCOC(=O)C(CSCC(NC(=O)CCC(N)C(=O)O)C(=O)NCC(=O)O)=NOC` (centres unmarked) [2-Amino-4-[2-(2-butoxycarbonyl-2-methoxyimino-ethylsulfanyl)-1-(carboxymethyl-carbamoyl)-ethylcarbamoyl]-butyric acid], the inhibition in vivo at up to 10 mg/kg lay in the range of 20 to 80%.
The result for `COC(=O)C(Cc1ccccc1)NC(=O)C(=O)CSCC(NC(=O)CCC(N)C(=O)O)C(=O)NCC(=O)O` (centres unmarked) [2-Amino-4-{1-(carboxymethyl-carbamoyl)-2-[2-(1-methoxycarbonyl-2-phenyl-ethylcarbamoyl)-2-oxo-ethylsulfanyl]-ethylcarbamoyl}-butyric acid] reads 20 to 80%; that for `CCOC(=O)C(N)CCC(=O)NC(CSCC(=O)C(=O)O)C(=O)NCC(=O)O` (centres unmarked) [2-amino-4-[1-(carboxymethyl-carbamoyl)-2-(2-carboxy-2-oxo-ethylsulfanyl)-ethylcarbamoyl]-butyric acid ethyl ester], 20 to 80%; that for `NC(CCC(=O)NC(CSCC(=O)C(=O)O)C(=O)NCC(=O)O)C(=O)O` (centres unmarked) [2-amino-4-[1-(carboxymethyl-carbamoyl)-2-(2-carboxy-2-oxo-ethylsulfanyl)-ethylcarbamoyl]-butyric acid], 20 to 80%.
The figure for `CCOC(=O)C(CSCC(NC(=O)CCC(N)C(=O)O)C(=O)NCC(=O)O)=NO` (centres unmarked) [2-amino-4-[1-(carboxymethyl-carbamoyl)-2-(2-ethoxycarbonyl-2-hydroxyimino-ethylsulfanyl)-ethylcarbamoyl]-butyric acid] is 20 to 80%; for `CCCCCCOC(=O)C(=O)CSCC(NC(=O)CCC(N)C(=O)O)C(=O)NCC(=O)O` (centres unmarked) [2-amino-4-[1-(carboxymethyl-carbamoyl)-2-(2-hexyloxycarbonyl-2-oxo-ethylsulfanyl)-ethylcarbamoyl]-butyric acid] it is 20 to 80%; for `CCOC(=O)C(=O)CSc1nc2ccccc2[nH]1` [3-(1H-Benzoimidazol-2-ylsulfanyl)-2-oxo-propionic acid ethyl ester] it is 20 to 80%.
The figure for `CCOC(=O)C(=O)CSC1=NCCS1` [3-(4,5-dihydro-thiazol-2-ylsulfanyl)-2-oxo-propionic acid ethyl ester] is 20 to 80%; for `CCOC(=O)C(=O)CSc1nc2cc(OC)ccc2[nH]1` [3-(5-methoxy-1H-benzoimidazol-2-ylsulfanyl)-2-oxo-propionic acid ethyl ester] it is 20 to 80%; for `CCOC(=O)C(=O)CSc1nc2cc([N+](=O)[O-])ccc2[nH]1` [3-(5-nitro-1H-benzoimidazol-2-ylsulfanyl)-2-oxo-propionic acid ethyl ester] it is 20 to 80%.
